Data from patent US12544365B2, “Pharmaceutical combination of an EP4 antagonist and immune checkpoint inhibitors for the treatment of tumours” (ROTTAPHARM BIOTECH S.R.L., priority 2019, dated 2026).

Assays:
[1] = Physical and chemical stability testing of solid forms (mechanical, thermal stress)
PK experiments in rat = details: in vivo, po
[2] = Stability of Form A at different humidity values and temperatures; type: physicochemical
Text: The stability of the Form A (named also as Compound 1) of the sodium salt of R)-4-(1-(6-(4-(trifluoromethyl)benzyl)-6-azaspiro[2.5]octane-5-carboxamido)cyclopropyl)benzoic acid at different humidity values and temperatures was investigated.

CT26 cancer cell tumours = assay: CT26 syngeneic model of mouse colorectal cancer in Balb/c mice; type: in vivo; details: compounds 30 mg/kg oral daily day 7-23; anti PD-1 i.p. 20 mg/kg day 8, 10 mg/kg days 13, 19, 22
Experimental: Male Balb/c mice 4-6 weeks old were housed five per cage in a temperature and humidity controlled room with a 12h/12h light/dark cycle. Throughout the experiment the animals had free access to food and water. The Balb/c mice were randomly divided into 6 groups (n=15 in each group): vehicle, Compound 1, Compound 2, anti PD-1, Compound 1+anti PD-1, Compound 2+anti PD-1 group.
CT26 cells were purchased from ATCC and cultured in Dulbecco's Modified Eagle's Medium (DMEM; ThermoFisher Scientific) supplemented with 10% fetal bovine serum (FBS; Sigma Aldrich) at 37° C. in an incubator with 5% CO2. Cells were sub-cultured twice a week until the number of cells needed for inoculation was obtained.
On the day of transplantation (day 0) logarithmic growing phase cells were harvested, diluted in PBS and 10^6 cells in 0.2 ml of PBS were subcutaneously inoculated into the lateral abdominal region of each mouse using a 26G syringe.
On day 7 after inoculation the mice were randomized into the 6 treatment groups each of 15 animals receiving respectively vehicle, Compound 1, Compound 2, anti PD-1 and the combination therapies. […]
Tumour sizes (mm^3) were evaluated twice a week by using a digital caliper. The tumour volumes were calculated measuring the tumour lengths along the major and minor axis and using the formula: Volume=[[…]]/2.

[3] = test system: Treg differentiation of human CD4+ naïve T cells; assay: Ex vivo human T regulatory cells differentiation (flow cytometry); type: cell-based; details: 0.1 μM compound, 0.03 μM PGE2, 144 hours
Experimental: Peripheral blood mononuclear cells (PBMC) were isolated from healthy volunteers using density gradient centrifugation and CD4+naïve T cells were enriched from PBMCs using human naïve CD4+ T cell isolation kit (Miltenyi Biotech). Isolated CD4+ T cells were maintained in RPMI medium and differentiated toward a Treg phenotype using two interleukins, namely, rIL23 and rIL-1B, both at a concentration of 10 ng/ml and co-stimulated with PGE2 at 30 nM concentration over a 144 hours incubation period.
At the end of incubation cells were stained with fluorescence conjugated antibodies specific for CD3, CD4, FoxP3, CD25, IL35 and CRTH2 (all from BD Bioscience). Finally, the number of Treg cells was determined by flow cytometry and the events were measured by Fluorescence Activated Cell Sorter (FACS; BD Bioscience) and analyzed with dedicated software.

[4] = molecular target: human recombinant EP4 receptor (Homo sapiens, UniProt P35408); assay: [3H]-PGE2 specific binding on human recombinant EP4 receptor (HEK293 membranes)
Sequence of human recombinant EP4 receptor (P35408 whole entry): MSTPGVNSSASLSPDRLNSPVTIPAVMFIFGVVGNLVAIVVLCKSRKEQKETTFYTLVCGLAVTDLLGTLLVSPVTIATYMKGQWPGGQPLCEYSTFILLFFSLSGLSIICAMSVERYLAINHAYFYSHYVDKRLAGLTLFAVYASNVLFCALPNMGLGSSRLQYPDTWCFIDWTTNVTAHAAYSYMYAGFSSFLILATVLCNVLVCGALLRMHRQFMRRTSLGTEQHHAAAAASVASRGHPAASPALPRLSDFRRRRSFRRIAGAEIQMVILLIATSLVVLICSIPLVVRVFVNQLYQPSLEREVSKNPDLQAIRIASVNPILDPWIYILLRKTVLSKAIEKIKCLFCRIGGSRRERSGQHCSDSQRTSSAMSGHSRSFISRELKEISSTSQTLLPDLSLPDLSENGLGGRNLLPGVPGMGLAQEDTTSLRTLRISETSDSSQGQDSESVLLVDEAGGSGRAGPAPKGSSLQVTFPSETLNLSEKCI
Experimental: Cell membranes were prepared from HEK293 cell line (Human Embryonic Kidney 293) stably overexpressing human recombinant EP4 receptor. Cells grow adherent in DMEM with Glutamax | containing 10% FBS at 37° C. with 5% CO2. For membranes preparation, culture medium was aspirated from 150 cm^2 flasks in which cells were seeded. Cell monolayers were washed with 10 ml of hypotonic lysis buffer (TRIS 5 mM+EDTA 5 mM-pH 7.4), then cells were detached and lysed with the same buffer and by mechanical scraping. Lysates were centrifuged at 40000×g at 4° C. for 22 min. Pellets were stored at −80° C. until the use.
[3H]-Prostaglandin E2 ([3H]-PGE2) binding assays were performed in 10 mM MES-KOH buffer pH6, containing 10 mM MgCl2 and 1 mM CaCl2. Ten microgram of protein from membrane fractions are incubated in a total volume of 0.1 ml with 1 nM [3H]-PGE2. In order to determine the total binding or the non specific binding, 1% DMSO or 1 μM PGE2 were added to reaction mixtures, respectively. The specific binding represented >85% of total binding. In competition curves, the diluent was substituted by the test compounds (8 concentration spanning at least 2 order of magnitude; points in duplicates). In an independent series of experiments, competition curves of the same compounds were performed in the presence of Bovine Serum Albumin 0.5%. Incubation was carried out in a 96 multiwell plate for 90 min at room temperature, prior to separation of the bound and free radioligand by rapid filtration on glass fiber filters (Unifilter GFB96, PerkinElmer Inc) pre-soaked in 0.3% polyethyleneimine. Filters were washed with ice cold buffer pH 7.4 (50 mM HEPES, NaCl 500 mM, BSA 0.1%), dried for 30 minutes at 30° C. and then 0.1 ml of MICROSCINT-20 (PerkinElmer Inc) were added. The residual [3H]-PGE2 binding was determined by solid scintillation counter (TopCount, PerkinElmer Inc), after at least 1 hour of stabilization. Results of the competition curves were expressed as IC50 and the corresponding Ki were calculated according to the Chang-Prousoff equation. Finally the Ki value was transformed in pKi (the negative log of Ki).

O=C([O-])c1ccc(C2(NC(=O)[C@H]3CC4(CCN3Cc3ccc(C(F)(F)F)cc3)CC4)CC2)cc1.[Na+] [Compound 1, sodium (R)-4-(1-(6-(4-(trifluoromethyl)benzyl)-6-azaspiro[2.5]octane-5-carboxamido)cyclopropyl)benzoate]
thermodynamic stability of the form [1]: most thermodynamically stable anhydrous form | physical stability (conversion to amorphous form) ([1]; mechanical or thermal stress): more stable towards amorphization by thermal stress | Tmax (PK experiments in rat): 1 h | Stability ([2]; Powder, 50% RH −30° C.): Stable >24 hours | Stability ([2]; Powder, 80° C.): Stable >5 days | Stability ([2]; Powder, RT): Stable >1 month | Stability ([2]; Sealed foil/Poly bag, 70% RH −40° C.): Stable >3 months | effect on tumour growth (tumour volume) (CT26 cancer cell tumours): mild inhibitory effect on cancer growth starting at the second week of treatment | Treg cell differentiation [3]: significantly decreased | Ki ([4]; BSA 0.5%): 25.1 nM | Ki ([4]; None (absence of BSA)): 12.6 nM
